Tests used:
[1] = physchem; settings: cell-culture medium
[2] = physchem; settings: PBS
[3] = Tmax in Sprague-Dawley rat at 5 mg/kg, po measured after 24 hrs by LC-MS/MS analysis; assay type: ADME, organism-based; settings: in vivo
[4] = AUC (0 to t) in Sprague-Dawley rat at 2 mg/kg, iv measured after 24 hrs by LC-MS/MS analysis; assay type: ADME, organism-based; settings: in vivo
[5] = Half-life in Sprague-Dawley rat at 2 mg/kg, iv measured after 24 hrs by LC-MS/MS analysis; assay type: ADME, organism-based; settings: in vivo
[6] = in vitro; settings: dog, MDCK-MDR1
[7] = Apparent volume of distribution in Sprague-Dawley rat at 2 mg/kg, iv measured after 24 hrs by LC-MS/MS analysis; assay type: ADME, organism-based; settings: in vivo, read-out: Vz
[8] = physchem; settings: PBS; remark: listed apart in the source
[9] = in vitro; settings: mouse, mouse liver microsomes
[10] = in vitro; settings: dog, MDCK-MDR1; remark: listed apart in the source
[11] = Oral bioavailability in Sprague-Dawley rat at 5 mg/kg measured after 24 hrs by LC-MS/MS analysis; assay type: ADME, organism-based; settings: in vivo
[12] = physchem; settings: PBS; remark: listed apart in the source
[13] = MRT in Sprague-Dawley rat at 5 mg/kg, po measured after 24 hrs by LC-MS/MS analysis; assay type: ADME, organism-based; settings: in vivo
[14] = AUC (0 to infinity) in Sprague-Dawley rat at 2 mg/kg, iv measured after 24 hrs by LC-MS/MS analysis; assay type: ADME, organism-based; settings: in vivo
[15] = Half-life in Sprague-Dawley rat at 5 mg/kg, po measured after 24 hrs by LC-MS/MS analysis; assay type: ADME, organism-based; settings: in vivo
[16] = Clearance in Sprague-Dawley rat at 2 mg/kg, iv measured after 24 hrs by LC-MS/MS analysis; assay type: ADME, organism-based; settings: in vivo
[17] = AUC (0 to infinity) in Sprague-Dawley rat at 5 mg/kg, po measured after 24 hrs by LC-MS/MS analysis; assay type: ADME, organism-based; settings: in vivo
[18] = Volume of distribution at steady state in Sprague-Dawley rat at 2 mg/kg, iv measured after 24 hrs by LC-MS/MS analysis; assay type: ADME, organism-based; settings: in vivo, read-out: Vdss
[19] = AUC (0 to t) in Sprague-Dawley rat at 5 mg/kg, po measured after 24 hrs by LC-MS/MS analysis; assay type: ADME, organism-based; settings: in vivo
[20] = in vitro; settings: dog, MDCK-MDR1; remark: listed apart in the source
[21] = Cmax in Sprague-Dawley rat at 5 mg/kg, po measured after 24 hrs by LC-MS/MS analysis; assay type: ADME, organism-based; settings: in vivo
[22] = in vitro; settings: dog, MDCK-MDR1; remark: listed apart in the source
[23] = MRT in Sprague-Dawley rat at 2 mg/kg, iv measured after 24 hrs by LC-MS/MS analysis; assay type: ADME, organism-based; settings: in vivo
[24] = dog, mdck-mdr1, 10 µM

## C=CS(=O)(=O)Nc1cccc(Nc2ncnc3cc(OCCOC)c(OCCOC)cc23)c1
[1]
  half-life: > 24 h
[2]
  half-life: > 24 h

## COCCOc1cc2ncnc(Nc3cccc(OS(=O)(=O)F)c3)c2cc1OCCOC
[3]
  Tmax: 2.33 h
[4]
  AUC(0-t) at 24 h: 1920 ng·h/mL
[5]
  half-life: 0.93 h
[1]
  half-life: 24 h
[6]
  recovery at 10 µM: 81.2%
[2]
  half-life: > 8 h
[7]
  Vd: 1.4 L/kg
[8]
  half-life: > 8 h
[9]
  half-life at 1 h: 0.493 h
[10]
  Papp A→B at 10 µM: 1.9 ×10⁻⁶ cm/s
[11]
  bioavailability: 32%
[12]
  half-life: > 12 h
[13]
  MRT: 2.48 h
[14]
  AUC(0-inf): 1920 ng·h/mL
[15]
  half-life: 0.81 h
[16]
  clearance: 17.4 mL/min/kg
[17]
  AUC(0-inf): 1540 ng·h/mL
[18]
  Vd: 1.22 L/kg
[19]
  AUC(0-t) at 24 h: 1530 ng·h/mL
[20]
  recovery at 10 µM: 86.8%
[21]
  Cmax: 444 ng/mL
[22]
  Papp B→A at 10 µM: 3.92 ×10⁻⁶ cm/s
[23]
  MRT: 1.16 h

## C[C@H]1O[C@@H](O[C@H]2[C@@H](O)C[C@H](O[C@H]3[C@@H](O)C[C@H](O[C@H]4CC[C@@]5(C)[C@H](CC[C@@H]6[C@@H]5C[C@@H](O)[C@]5(C)[C@@H](C7=CC(=O)OC7)CC[C@]65O)C4)O[C@@H]3C)O[C@@H]2C)C[C@H](O)[C@@H]1O [DIGOXIN]
[24]
  Papp: 6.41 10^-6 cm/s
[6]
  recovery at 10 µM: 97.9%
[20]
  recovery at 10 µM: 105%
[22]
  Papp B→A at 10 µM: 18.5 ×10⁻⁶ cm/s

Source: ChEMBL document CHEMBL5625196, “Cell-active, irreversible covalent inhibitors that selectively target the catalytic lysine of EGFR by using fluorosulfate-based SuFEx chemistry” (Eur J Med Chem, 2023)
